According to ChEMBL document CHEMBL1240388, “Single nucleotide polymorphism analysis of the major tripartite multidrug efflux pump of Escherichia coli: functional conservation in disparate animal reservoirs despite exposure to antimicrobial chemotherapy” (2010):
Converted amounts (≈) assume the structure as drawn.

Experiments:
Escherichia coli [1] = experiment: Antibacterial activity against Escherichia coli AG102MB; type: functional
Escherichia coli [2] = experiment: Antibacterial activity against Escherichia coli AG102MB harboring naive acrB gene; type: functional
Escherichia coli [3] = experiment: Antibacterial activity against Escherichia coli AG102MB harboring pP10-based acrB gene; type: functional
Escherichia coli [4] = experiment: Antibacterial activity against Escherichia coli AG102MB harboring pS1328-based acrB gene; type: functional
Escherichia coli [5] = experiment: Antibacterial activity against Escherichia coli AG102MB harboring pSportI cloning vector

Row | SMILES | MIC (Escherichia coli [1]) | MIC (Escherichia coli [2]) | MIC (Escherichia coli [3]) | MIC (Escherichia coli [4]) | MIC (Escherichia coli [5])
1 | C[C@H](CCC(=O)O)[C@H]1CC[C@H]2[C@@H]3[C@H](O)C[C@@H]4C[C@H](O)CC[C@]4(C)[C@H]3C[C@H](O)[C@]12C [CHOLIC ACID] | 4 µg/mL (≈ 9.79 µM) | 8 µg/mL (≈ 19.6 µM) | 8 µg/mL (≈ 19.6 µM) | 16 µg/mL (≈ 39.2 µM) | 4 µg/mL (≈ 9.79 µM)
2 | CN(C)[C@@H]1C(O)=C(C(N)=O)C(=O)[C@@]2(O)C(O)=C3C(=O)c4c(O)cccc4[C@@](C)(O)[C@H]3C[C@@H]12 [TETRACYCLINE] | 1 µg/mL (≈ 2.25 µM) | 8 µg/mL (≈ 18 µM) | 8 µg/mL (≈ 18 µM) | 16 µg/mL (≈ 36 µM) | 1 µg/mL (≈ 2.25 µM)
3 | CC(=O)O[C@H]1C[C@@]2(C)[C@@H](C[C@@H](O)[C@H]3[C@@]4(C)CC[C@@H](O)[C@@H](C)[C@@H]4CC[C@@]32C)/C1=C(\CCC=C(C)C)C(=O)O [FUSIDIC ACID] | 16 µg/mL (≈ 31 µM) | > 512 µg/mL | > 512 µg/mL | > 512 µg/mL | 8 µg/mL (≈ 15.5 µM)
4 | CC[C@H]1OC(=O)C[C@@H](O)[C@H](C)[C@@H](O[C@@H]2O[C@H](C)[C@@H](O[C@H]3C[C@@](C)(O)[C@@H](O)[C@H](C)O3)[C@H](N(C)C)[C@H]2O)[C@@H](CC=O)C[C@@H](C)C(=O)/C=C/C(C)=C/[C@@H]1CO[C@@H]1O[C@H](C)[C@@H](O)[C@@H](OC)[C@H]1OC [TYLOSIN] | 128 µg/mL (≈ 140 µM) | 1020 µg/mL (≈ 1120 µM) | 1020 µg/mL (≈ 1120 µM) | > 1020 µg/mL | 16 µg/mL (≈ 17.5 µM)
5 | CC[n+]1c(-c2ccccc2)c2cc(N)ccc2c2ccc(N)cc21.[Br-] [HOMIDIUM BROMIDE] | 4 µg/mL | 128 µg/mL | 64 µg/mL | 64 µg/mL | 2 µg/mL
6 | CN(C)c1ccc(C(=C2C=CC(=[N+](C)C)C=C2)c2ccc(N(C)C)cc2)cc1.[Cl-] [GENTIAN VIOLET] | 0.5 µg/mL | 4 µg/mL | 4 µg/mL | 4 µg/mL | 0.5 µg/mL
7 | CO[C@@H]1[C@@H](OC(N)=O)[C@@H](O)[C@H](Oc2ccc3c(O)c(NC(=O)c4ccc(O)c(CC=C(C)C)c4)c(=O)oc3c2C)OC1(C)C [NOVOBIOCIN] | 4 µg/mL (≈ 6.53 µM) | 512 µg/mL (≈ 836 µM) | 512 µg/mL (≈ 836 µM) | 512 µg/mL (≈ 836 µM) | 8 µg/mL (≈ 13.1 µM)
8 | CO[C@H]1C[C@H](O[C@H]2[C@H](C)[C@@H](O[C@@H]3O[C@H](C)C[C@H](N(C)C)[C@H]3O)[C@@H](C)C[C@@]3(CO3)C(=O)[C@H](C)[C@@H](O)[C@@H](C)[C@@H](C)OC(=O)[C@@H]2C)O[C@@H](C)[C@@H]1O [OLEANDOMYCIN] | 256 µg/mL (≈ 372 µM) | > 1020 µg/mL | > 1020 µg/mL | > 1020 µg/mL | 64 µg/mL (≈ 93 µM)
9 | CC1(C)S[C@@H]2[C@H](NC(=O)[C@H](N)c3ccccc3)C(=O)N2[C@H]1C(=O)O [AMPICILLIN] | 16 µg/mL (≈ 45.8 µM) | > 1020 µg/mL | > 1020 µg/mL | > 1020 µg/mL | > 1020 µg/mL
10 | CC[C@H]1OC(=O)[C@H](C)[C@@H](O[C@H]2C[C@@](C)(OC)[C@@H](O)[C@H](C)O2)[C@H](C)[C@@H](O[C@@H]2O[C@H](C)C[C@H](N(C)C)[C@H]2O)[C@](C)(O)C[C@@H](C)C(=O)[C@H](C)[C@@H](O)[C@]1(C)O [ERYTHROMYCIN] | 4 µg/mL (≈ 5.45 µM) | 128 µg/mL (≈ 174 µM) | 128 µg/mL (≈ 174 µM) | 512 µg/mL (≈ 698 µM) | 8 µg/mL (≈ 10.9 µM)
11 | NC[C@H]1O[C@H](O[C@H]2[C@H](O)[C@@H](O[C@H]3O[C@H](CO)[C@@H](O)[C@H](N)[C@H]3O)[C@H](N)C[C@@H]2N)[C@H](O)[C@@H](O)[C@@H]1O [KANAMYCIN] | > 1020 µg/mL | – | – | – | –
12 | O=C(N[C@H](CO)[C@H](O)c1ccc([N+](=O)[O-])cc1)C(Cl)Cl [CHLORAMPHENICOL] | 2 µg/mL (≈ 6.19 µM) | – | 32 µg/mL (≈ 99 µM) | – | 4 µg/mL (≈ 12.4 µM)
13 | O=C(O)c1cn(C2CC2)c2cc(N3CCNCC3)c(F)cc2c1=O [CIPROFLOXACIN] | 0.063 µg/mL (≈ 0.19 µM) | – | – | – | –
